Reference: US9675555B2, “Liposome-encapsulated bicelles and use thereof in diluted systems” (priority 2010, dated 2017)
Structures can show the parent of a compound that is named as a salt.

Legend:
[1] = Incorporation of different substances into the systems; type: physicochemical
Experimental: The incorporation was made in the step of formation of the bicelles. Depending on the hydrophilic or lypophilic character of the substance, this was added together with the lipids forming the bicelle in the chloroform step or together with the hydration water. For these preparations, the following blends: DPPC/DHPC, DMPC/DHPC and DOPC/DHPC were selected. The DOPC is dioleoylphosphatidylcholine. The work was carried out with molar rates of the concentrations of both lipids between 2 and 3.5.
The samples were submitted between 10 and 50 sonication cycles in an ultrasound bath for a period of 5 minutes and 5 minutes of freezing until they became clear.
These bicelles, together with the substances internally contained were encapsulated in liposomes in the form described in example 1 and were characterized according to the methods described in example 2.
The nistatine molecule was incorporated to the systems of the invention as described in example 3.

Candida albicans fungus = assay: Microbiologic activity of nistatine (MIC); type: cell-based; settings: nistatine incorporated to the liposomes of the invention

Row | Compound | encapsulation within the bicelles contained within the liposomes of the invention [1] | minimum inhibitory concentration (MIC) (Candida albicans fungus) [mg/L] | quantity of nistatine incorporated into the system of the invention ([1]; high water content system)
1 | Cn1c(=O)c2c(ncn2C)n(C)c1=O [caffeine] | efficiently encapsulated |  | 
2 | CC(C)CCC[C@@H](C)[C@H]1CC[C@H]2[C@@H]3CC=C4C[C@@H](OS(=O)(=O)O)CC[C@]4(C)[C@H]3CC[C@]12C [cholesterol sulfate] | efficiently encapsulated |  | 
3 | O=C(O)Cc1ccccc1Nc1c(Cl)cccc1Cl [dichlophenac] | efficiently encapsulated |  | 
4 | O=C(O)c1ccccc1Nc1cccc(C(F)(F)F)c1 [flufenamic acid] | efficiently encapsulated |  | 
5 | CNC(=O)CN(CCN(CCN(CC(=O)[O-])CC(=O)NC)CC(=O)[O-])CC(=O)[O-].[Gd+3] [gadodiamide] | efficiently encapsulated |  | 
6 | [Fe] [iron] | efficiently encapsulated |  | 
7 | ceramides | efficiently encapsulated |  | 
8 | nistatine |  | 16 | about 15.75 mg/ml
